Values quoted from earlier work in patent publication US20230158080A1 ([…], LLC, priority 2021, published 2023).

Assays:
[1] = system: CD34+/F1k1+ and CD34+/VE-cadherin+ cells; settings: castrated rats after testosterone supplementation
androgen receptor = androgen receptor (Homo sapiens, UniProt P10275); settings: stimulation of EPCs
EPC = settings: different doses of R1881

Sequence of androgen receptor (P10275 whole entry): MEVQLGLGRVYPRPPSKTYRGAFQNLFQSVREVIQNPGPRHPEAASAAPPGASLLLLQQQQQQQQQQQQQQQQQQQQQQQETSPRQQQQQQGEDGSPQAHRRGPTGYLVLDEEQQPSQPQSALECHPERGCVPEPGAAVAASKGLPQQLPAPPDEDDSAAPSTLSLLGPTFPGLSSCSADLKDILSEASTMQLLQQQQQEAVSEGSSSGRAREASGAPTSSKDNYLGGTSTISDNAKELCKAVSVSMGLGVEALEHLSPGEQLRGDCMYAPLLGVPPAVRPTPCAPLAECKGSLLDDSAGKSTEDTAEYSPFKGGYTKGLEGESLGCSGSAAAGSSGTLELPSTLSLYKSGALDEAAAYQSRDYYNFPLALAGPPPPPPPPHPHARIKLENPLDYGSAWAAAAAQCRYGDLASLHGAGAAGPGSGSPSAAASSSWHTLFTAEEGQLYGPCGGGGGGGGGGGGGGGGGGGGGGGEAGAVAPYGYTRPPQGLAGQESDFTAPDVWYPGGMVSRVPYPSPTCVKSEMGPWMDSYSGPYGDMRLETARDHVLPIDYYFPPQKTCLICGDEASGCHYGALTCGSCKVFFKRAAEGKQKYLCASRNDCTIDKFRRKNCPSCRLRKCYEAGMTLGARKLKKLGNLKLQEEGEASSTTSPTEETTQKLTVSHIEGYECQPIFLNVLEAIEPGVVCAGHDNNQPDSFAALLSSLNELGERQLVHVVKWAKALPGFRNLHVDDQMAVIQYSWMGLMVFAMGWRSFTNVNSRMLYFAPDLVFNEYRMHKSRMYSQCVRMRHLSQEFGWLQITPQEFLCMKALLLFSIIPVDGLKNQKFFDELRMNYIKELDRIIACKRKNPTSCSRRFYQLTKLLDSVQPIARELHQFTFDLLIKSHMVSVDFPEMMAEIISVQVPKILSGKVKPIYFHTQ

Row | Structure (SMILES) | percentage of EPC marker-positive cells in corpus cavernosum [1] | androgen receptor translocation in the nucleus (androgen receptor) | EPC proliferation, migration and colony formation (EPC)
1 | C[C@]12CC[C@H]3[C@@H](CCC4=CC(=O)CC[C@@]43C)[C@@H]1CC[C@@H]2O [testosterone] | restored |  | 
2 | C[C@]1(O)CC[C@H]2[C@@H]3CCC4=CC(=O)CCC4=C3C=C[C@@]21C [R1881, methyltrienolone] |  | caused androgen receptor translocation in the nucleus | dose-dependent increase
